Data from ChEMBL document CHEMBL1933025, “Discovery and optimization of thieno[2,3-d]pyrimidines as B-Raf inhibitors” (Bioorg Med Chem Lett, 2012).

Test: Oral bioavailability in CD IGS rat at 10 mg/kg measured after 26 hrs
Type: ADME, organism-based
Conditions: in vivo

Row | bioavailability [%] | Structure (SMILES)
1 | 0.3 | NC(=O)c1sc2ncnc(-c3cccc(NC(=O)Nc4ccc(C(F)(F)F)cc4)c3)c2c1N
2 | 17 | COc1cncc(-c2nc(NC(C)(C)CO)nc3sc(C(N)=O)c(N)c23)c1
